In this assay the test system is BDF1 mice, P388 leukemia ip, median survival T/C. The experiment in a line: NCI In Vivo Anticancer Drug Screen. Data for tumor model P388 Leukemia (intraperitoneal) in B6D2F1 (BDF1) mice. The note with it: endpoint: median survival time, higher = longer survival. In outline:
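Read-out is survival of treated animals expressed relative to the vehicle group, as a T/C ratio.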

Where [1] appears, read: dose: 100.0 mg/kg/injection, schedule: Q01DX009 (ip), vehicle: saline with Tween-80.
Setting [2] is: dose: 100.0 mg/kg/injection, schedule: Q04DX003 (ip), vehicle: saline with Tween-80.
Where [3] appears, read: dose: 200.0 mg/kg/injection, schedule: Q01DX009 (ip), vehicle: saline with Tween-80.
[4] abbreviates: dose: 200.0 mg/kg/injection, schedule: Q04DX003 (ip), vehicle: saline with Tween-80.
[5] abbreviates: dose: 400.0 mg/kg/injection, schedule: Q01DX009 (ip), vehicle: saline with Tween-80.
The mark [6] stands for this setting: dose: 400.0 mg/kg/injection, schedule: Q04DX003 (ip), vehicle: saline with Tween-80.
[7] abbreviates: dose: 50.0 mg/kg/injection, schedule: Q01DX009 (ip), vehicle: saline with Tween-80.
The mark [8] stands for this setting: dose: 100.0 mg/kg/injection, schedule: Q01DX001 (ip), vehicle: saline with Tween-80.
The mark [9] stands for this setting: dose: 200.0 mg/kg/injection, schedule: Q01DX001 (ip), vehicle: saline with Tween-80.
[10] abbreviates: dose: 25.0 mg/kg/injection, schedule: Q01DX009 (ip), vehicle: saline with Tween-80.
The mark [11] stands for this setting: dose: 100.0 mg/kg/injection, schedule: Q04DX002 (ip), vehicle: saline with Tween-80.

T/C data for 18 molecules are collected here from PubChem BioAssay AID328 (DTP/NCI, 2004).

Where “and” joins values, the source holds several entries; their conditions need not be identical. Equal entries are not always repeated. Toxic doses and inconclusive results are not listed.

With `C=CCC(CC)C(=O)Cl` (centres undefined), the T/C under setting [1] was 109 % of control; the T/C under setting [2] is 111 % of control; the T/C under setting [3] was 100 % of control; the T/C under setting [4] was 110 % of control; the T/C under setting [5] is 100 % of control; the T/C under setting [6] is 105 % of control and 110 % of control.

`c1ccc2c(c1)C1c3ccccc3C2C2COCC12` (centres undefined): the T/C is, setting by setting: (dose: 25.0 mg/kg/injection, schedule: Q01DX009 (ip), vehicle: Klucel (hydroxypropylcellulose) (HPC)) 105 % of control; (dose: 50.0 mg/kg/injection, schedule: Q01DX009 (ip), vehicle: Klucel (hydroxypropylcellulose) (HPC)) 110 % of control; (dose: 75.0 mg/kg/injection, schedule: Q04DX003 (ip), vehicle: Klucel (hydroxypropylcellulose) (HPC)) 108 % of control; (dose: 100.0 mg/kg/injection, schedule: Q01DX009 (ip), vehicle: Klucel (hydroxypropylcellulose) (HPC)) 100 % of control; (dose: 150.0 mg/kg/injection, schedule: Q04DX003 (ip), vehicle: Klucel (hydroxypropylcellulose) (HPC)) 104 % of control; (dose: 300.0 mg/kg/injection, schedule: Q04DX003 (ip), vehicle: Klucel (hydroxypropylcellulose) (HPC)) 86 % of control.

As for `C/C=C(/Cl)c1c(C)cc(C)cc1C`, the T/C under setting [1] is 108 % of control; the T/C under setting [2] was 100 % of control; the T/C under setting [3] was 108 % of control; the T/C under setting [4] was 111 % of control; the T/C under setting [6] was 103 % of control.

In the case of `CCSc1ncnc2c1ncn2C1OC(CO)C(O)C1O` (centres undefined), the T/C is 95 % of control under setting [7], 117 % of control under setting [1] and 91 % of control under setting [3].

Turning to `CCOC(=O)/C=C(\C)SC1=CC(=O)C=CC1=O`, the T/C by setting is: under setting [8], 106 % of control; under setting [9], 100 % of control.

In the case of `Cc1ccc(NCCN2CCOCC2)c2c(=O)c3ccccc3sc12`, the T/C (dose: 100.0 mg/kg/injection, schedule: Q01DX009 (ip), vehicle: saline) was 90 % of control; the T/C (dose: 100.0 mg/kg/injection, schedule: Q04DX003 (ip), vehicle: saline) is 110 % of control; the T/C (dose: 200.0 mg/kg/injection, schedule: Q01DX009 (ip), vehicle: saline) is 109 % of control; the T/C (dose: 200.0 mg/kg/injection, schedule: Q04DX003 (ip), vehicle: saline) is 110 % of control; the T/C (dose: 400.0 mg/kg/injection, schedule: Q01DX009 (ip), vehicle: saline) was 122 % of control; the T/C (dose: 400.0 mg/kg/injection, schedule: Q04DX003 (ip), vehicle: saline) is 110 % of control.

For `CC1(C)CCC2(C)CC=C3OC(=O)CCC3(C)C2C1` (centres undefined), the T/C runs as follows: under setting [1], 118 % of control; (dose: 100.0 mg/kg/injection, schedule: Q04DX003 (ip), vehicle: saline sonified) 100 % of control; under setting [3], 100 % of control; (dose: 200.0 mg/kg/injection, schedule: Q04DX003 (ip), vehicle: saline sonified) 100 % of control; under setting [5], 109 % of control; (dose: 400.0 mg/kg/injection, schedule: Q04DX003 (ip), vehicle: saline sonified) 95 % of control.

In the case of `CC1(C)NC(=O)NC1=O`, the T/C is, setting by setting: under setting [8], 100 % of control; under setting [9], 100 % of control; (dose: 400.0 mg/kg/injection, schedule: Q01DX001 (ip), vehicle: saline with Tween-80) 100 % of control.

For the molecule `CCOC(=O)c1ccc(N(CCOS(C)(=O)=O)CCOS(C)(=O)=O)cc1`, the T/C by setting is: (dose: 66.0 mg/kg/injection, schedule: Q01DX008 (ip), vehicle: saline with Tween-80) 200 % of control; (dose: 100.0 mg/kg/injection, schedule: Q01DX008 (ip), vehicle: saline with Tween-80) 222 % of control; (dose: 132.0 mg/kg/injection, schedule: Q04DX003 (ip), vehicle: saline with Tween-80) 177 % of control; (dose: 150.0 mg/kg/injection, schedule: Q01DX008 (ip), vehicle: saline with Tween-80) 272 % of control; under setting [4], 190 % of control; (dose: 300.0 mg/kg/injection, schedule: Q04DX003 (ip), vehicle: saline with Tween-80) 195 % of control.

Regarding `CC[C@H]1OC(=O)[C@H](C)[C@@H](OC2CC(C)(OC)C(OC(=O)CCCC(=O)O)C(C)O2)[C@H](C)[C@@H](OC2OC(C)CC(N(C)C)C2O)[C@](C)(O)C[C@@H](C)C(=O)[C@H](C)[C@@H](O)[C@]1(C)O` (some centres undefined), the T/C runs as follows: (dose: 7.5 mg/kg/injection, schedule: Q01DX009 (ip), vehicle: Klucel (hydroxypropylcellulose) (HPC)) 111 % of control; (dose: 15.0 mg/kg/injection, schedule: Q01DX009 (ip), vehicle: Klucel (hydroxypropylcellulose) (HPC)) 101 % of control; (dose: 30.0 mg/kg/injection, schedule: Q01DX009 (ip), vehicle: Klucel (hydroxypropylcellulose) (HPC)) 97 % of control; (dose: 60.0 mg/kg/injection, schedule: Q01DX009 (ip), vehicle: Klucel (hydroxypropylcellulose) (HPC)) 111 % of control.

As to `COc1cc2cc(c1Cl)NC(=O)CC(OC(=O)C(C)N(C)C(=O)C1(C)CC1C)C1(C)OC1C(C)C1CC(O)(NC(=O)O1)C(OC)C=C/C=C(\C)C2` (centres undefined), the T/C (dose: 0.1 micrograms/kg/injection, schedule: Q01DX009 (ip), vehicle: saline + alcohol) is 115 % of control; the T/C (dose: 0.2 micrograms/kg/injection, schedule: Q01DX009 (ip), vehicle: saline + alcohol) was 165 % of control; the T/C (dose: 0.4 micrograms/kg/injection, schedule: Q01DX009 (ip), vehicle: saline + alcohol) is 165 % of control; the T/C (dose: 0.8 micrograms/kg/injection, schedule: Q01DX009 (ip), vehicle: saline + alcohol) was 155 % of control; the T/C (dose: 1.6 micrograms/kg/injection, schedule: Q01DX009 (ip), vehicle: saline + alcohol) was 167 % of control and 175 % of control; the T/C (dose: 3.1 micrograms/kg/injection, schedule: Q01DX009 (ip), vehicle: saline + alcohol) is 184 % of control and 190 % of control. For the same molecule, the T/C is, setting by setting: (dose: 6.2 micrograms/kg/injection, schedule: Q01DX009 (ip), vehicle: saline + alcohol) 233 % of control and 300 % of control; (dose: 12.5 micrograms/kg/injection, schedule: Q01DX009 (ip), vehicle: saline + alcohol) 184 % of control and 200 % of control; (dose: 25.0 micrograms/kg/injection, schedule: Q01DX009 (ip), vehicle: saline + alcohol) 87 % of control and 90 % of control.

Turning to `O=C1/C(=C/c2ccccc2O)SC(=S)N1CCCN1CCOCC1`, the T/C is, setting by setting: under setting [7], 95 % of control; under setting [1], 100 % of control; under setting [3], 90 % of control.

Turning to `COc1cccc2ccc(CC(O)(c3ccccc3)c3ccccc3)nc12`, the T/C runs as follows: under setting [10], 91 % of control; under setting [7], 100 % of control; under setting [1], 100 % of control.

In the case of `O=C(NC(=O)c1c(F)cccc1F)Nc1cccc(C(F)(F)F)c1`, the T/C is, setting by setting: under setting [10], 97 % of control; under setting [7], 99 % of control; under setting [1], 97 % of control.

As for `Cc1ccc2c(c1)N=C(Nc1ccccc1)N=S2(C)=O` (centres undefined), the T/C under setting [10] is 123 % of control and the T/C under setting [1] is 160 % of control.

With `CC(C)(C)S[Si](Cl)(SC(C)(C)C)SC(C)(C)C`, the T/C reads like this: under setting [11], 119 % of control; (dose: 200.0 mg/kg/injection, schedule: Q04DX002 (ip), vehicle: saline with Tween-80) 103 % of control; (dose: 400.0 mg/kg/injection, schedule: Q04DX002 (ip), vehicle: saline with Tween-80) 94 % of control.

In the case of `O=C1CCCCc2ccc(O)cc21`, the T/C under setting [1] was 99 % of control, the T/C under setting [3] was 89 % of control and the T/C under setting [5] was 93 % of control.

As for `Cc1nc2[nH]c(=O)ccc2c(C)c1N`, the T/C under setting [11] is 92 % of control.
